Square brackets hold non-standard residues; d marks the D form. Peptide text beside a SMILES is read from it. * marks the point of attachment. Benzoyl(4-CF3) = O=C(c1ccc(C(F)(F)F)cc1)*; NH((S)CH(Me)CH2NMe2) = C[C@@H](CN(C)C)N*; Benzoyl(4-OMe) = COc1ccc(C(=O)*)cc1; Gly(octyl) = CCCCCCCC[C@H](N)C(=O)O; X7 = O=C(c1ccc2[nH]ccc2c1)*; X5 = O=C(C1CCc2ccccc2C1)*; Aib = CC(C)(N)C(=O)O; βAla = NCCC(=O)O
What was measured:
[1] = tested on: axenic Leishmania donovani MHOM-ET-67/L82 amastigotes; experiment: In vitro antiprotozoal assay, axenic amastigotes; type: cell-based; conditions: axenic amastigotes; read-out: L.don.ax. IC50
Protocol: (§1) The testing of the inventive compounds against Leishmania donovani (strain MHOM/ET/67/L82) was performed in 96 well plates at concentrations in serial dilutions. Tests were done in triplicate.

[2] = tested on: intracellular Leishmania donovani MHOM-ET-67/L82 amastigotes; experiment: In vitro antiprotozoal assay, intracellular amastigotes; type: cell-based; conditions: intracellular amastigotes; read-out: L.don.InMac IC50
Protocol: as §1

[3] = Cytotoxicity assay (Alamar Blue) on L6-cells; type: cell-based, rat; conditions: rat
Protocol: Tests were done in triplicate.
The plates were incubated for additional 2 h.

Row | Structure (SMILES) | IC50 [1] [nM] | IC50 [2] [nM] | IC50 at 68 h [3] [nM]
1 | CCCCCCCC[C@H](NC(=O)[C@@H]1CCCN1C(=O)C1CCc2ccccc2C1)C(=O)N[C@@H](CC(C)C)C(=O)NC(C)(C)C(=O)N[C@@H](CC(C)C)C(=O)N[C@@H](CC(C)C)C(=O)NC(C)(C)C(=O)NC(C)(C)C(=O)NCCC(=O)N[C@@H](C)CN(C)C (stereo partly drawn) [Compound 5910, (2S)—N-[(1S)-1-[(1-{[(1S)-1-{[(1S)-1-{[1-({1-[(2-{[(2S)-1-(dimethylamino)propan-2-yl]carbamoyl}ethyl)carbamoyl]-1-methylethyl}carbamoyl)-1-methylethyl]carbamoyl}-3-methylbutyl]carbamoyl}-3-methylbutyl]carbamoyl}-1-methylethyl)carbamoyl]-3-methylbutyl]-2-{[(2S)-1-(1,2,3,4-tetrahydronaphthalene-2-carbonyl)pyrrolidin-2-yl]formamido}decanamide] (X5-P[Gly(octyl)]L[Aib]LL[Aib][Aib][βAla]-{NH((S)CH(Me)CH2NMe2)}) | 2.1 | 6.7 | 230
2 | CCCCCCCC[C@H](NC(=O)[C@@H]1CCCN1C(=O)c1ccc2[nH]ccc2c1)C(=O)N[C@@H](CC(C)C)C(=O)NC(C)(C)C(=O)N[C@@H](CC(C)C)C(=O)N[C@@H](CC(C)C)C(=O)NC(C)(C)C(=O)NC(C)(C)C(=O)NCCC(=O)N[C@@H](C)CN(C)C [Compound 5911, (2S)—N-[(1S)-1-[(1-{[(1S)-1-{[(1S)-1-{[1-({1-[(2-{[(2S)-1-(dimethylamino)propan-2-yl]carbamoyl}ethyl)carbamoyl]-1-methylethyl}carbamoyl)-1-methylethyl]carbamoyl}-3-methylbutyl]carbamoyl}-3-methylbutyl]carbamoyl}-1-methylethyl)carbamoyl]-3-methylbutyl]-2-{[(2S)-1-(1H-indole-5-carbonyl)pyrrolidin-2-yl]formamido}decanamide] (X7-P[Gly(octyl)]L[Aib]LL[Aib][Aib][βAla]-{NH((S)CH(Me)CH2NMe2)}) | 14.4 | 34.8 | 457
3 | CCCCCCCC[C@H](NC(=O)[C@@H]1CCCN1C(=O)c1ccc(OC)cc1)C(=O)N[C@@H](CC(C)C)C(=O)NC(C)(C)C(=O)N[C@@H](CC(C)C)C(=O)N[C@@H](CC(C)C)C(=O)NC(C)(C)C(=O)NC(C)(C)C(=O)NCCC(=O)N[C@@H](C)CN(C)C [Compound 5912, (2S)—N-[(1S)-1-[(1-{[(1S)-1-{[(1S)-1-{[1-({1-[(2-{[(2S)-1-(dimethylamino)propan-2-yl]carbamoyl}ethyl)carbamoyl]-1-methylethyl}carbamoyl)-1-methylethyl]carbamoyl}-3-methylbutyl]carbamoyl}-3-methylbutyl]carbamoyl}-1-methylethyl)carbamoyl]-3-methylbutyl]-2-{[(2S)-1-(4-methoxybenzoyl)pyrrolidin-2-yl]formamido}decanamide] ({Benzoyl(4-OMe)}-P[Gly(octyl)]L[Aib]LL[Aib][Aib][βAla]-{NH((S)CH(Me)CH2NMe2)}) | 5.1 | 12.8 | 254
4 | CCCCCCCC[C@H](NC(=O)[C@@H]1CCCN1C(=O)c1ccc(C(F)(F)F)cc1)C(=O)N[C@@H](CC(C)C)C(=O)NC(C)(C)C(=O)N[C@@H](CC(C)C)C(=O)N[C@@H](CC(C)C)C(=O)NC(C)(C)C(=O)NC(C)(C)C(=O)NCCC(=O)N[C@@H](C)CN(C)C [Compound 5936, (2S)-N-[(1S)-1-[(1-{[(1S)-1-{[(1S)-1-{[1-({1-[(2-{[(2S)-1-(dimethylamino)propan-2-yl]carbamoyl}ethyl)carbamoyl]-1-methylethyl}carbamoyl)-1-methylethyl]carbamoyl}-3-methylbutyl]carbamoyl}-3-methylbutyl]carbamoyl}-1-methylethyl)carbamoyl]-3-methylbutyl]-2-{[(2S)-1-[4-(trifluoromethyl)benzoyl]pyrrolidin-2-yl]formamido}decanamide] ({Benzoyl(4-CF3)}-P[Gly(octyl)]L[Aib]LL[Aib][Aib][βAla]-{NH((S)CH(Me)CH2NMe2)}) | 3.3 | < 33.2 | 411

From US20240174714A1, “TREATMENT OF SKIN DISORDERS” (priority 2021, published 2024)
